Data: patent US20210317140A1, “Heterocyclic Compounds and Methods of Use” (MEDIVATION TECHNOLOGIES, INC, priority 2013, published 2021)

Experiments:
[1] = biological target: T1, BTK (Homo sapiens, UniProt Q06187); assay: BTK kinase assay (HotSpot, 33P ATP); type: biochemical; conditions: for IC50: 10 dose IC50, 10 μM ATP; for BTK @ 0.1 μM (% Inh): 0.1 μM compound; for BTK @ 1 μM (% Inh): 1 μM compound
T1 construct: purchased Reaction Biology Corporation
In short: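 In 20 mM Hepes (pH 7.5) with 10 mM MgCl2, 1 mM EGTA, 0.1 mM Na3VO4, 2 mM DTT, 0.02% Brij35, 0.02 mg/mL BSA and 1% DMSO, kinase and substrate were exposed to ten compound doses for 15–20 min.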

[2] = biological target: T2, PI3Kδ (Homo sapiens, UniProt O00329); assay: PI3Kδ kinase assay (HTRF, PIP3 detection); type: biochemical; conditions: for IC50: 10 dose IC50, 10 μM ATP; for PI3Kδ @ 0.1 μM (% Inh): 0.1 μM compound; for PI3Kδ @ 1 μM (% Inh): 1 μM compound
T2 construct: purchased Reaction Biology Corporation
In short: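 10-dose HTRF assay; kinase preincubated with compound 10 min at RT, then reacted with 10 μM PIP2 and 10 μM ATP for 30 min at 30 °C in HEPES pH 7.0 buffer. PIP3 product displaces biotin-PIP3 from the Eu/APC complex; signal converted to PIP3 via standard curve, IC50 by nonlinear regression.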

[3] = tested on: CD69+B220+ cells; assay: B cell activation assay (IgD-stimulated splenocytes, CD69+B220+ cells by FACS); type: cell-based; conditions: IgD 3 μg/mL, 4 h; for CD69 @ 100 nM (% Inh): 100 nM compound, mouse splenocytes
Procedure: 1 Female mouse approximately 2 months old was euthanized with CO2 and the spleen removed. The tissue was homogenized with a polished glass microscope slide. The cells were collected in 5 mL complete medium (RPMI+10% FBS+pen/strep), placed in a 15 mL falcon tube and centrifuged at 500×g for 5 min. The supernatant was discarded and the pellet was resuspended in 3 mL of ACK lysis buffer (NH4Cl 0.17M, KHCO3 10 mM, EDTA-Na2 0.1 mM, pH 7.2), incubated at 37° C. for 5 min. 2 mL complete medium was added and the mixture centrifuged at 500×g for 5 min. The supernatant was discarded and the pellet resuspended in 1 mL complete medium. The mixture was passed through a […] cell strainer and collect in 50 mL falcon tube. Enough medium was added to have a total of 10 mL. The cells were counted and seeded in 24 or 48-well plate in 1 mL complete medium at 10^6 cells/mL. The plate was placed in a 37° C. incubator for 15 min. The cells were treated for 30 min at 37° C. with 100 nM test compound dissolved in 100% DMSO. 3 μL IgD (Accurate chemical and scientific corp.) was added at a final concentration of 3 μg/mL and the mixture incubated at 37° C. for 4 h. The cells were collected in 1.5 mL eppendorf tubes, centrifuged at 500×g for 5 min and then resuspended in 100 μL of PBS+2% FBS. The following antibodies were added: α-B220 PE (pharmingen #553090), α-CD69 APC (pharmingen #60689), live/dead fixable aqua dead cell stain kit (life technologies #L34957) all at 1:300, and the mixture incubated for 15 min at 4° C. in the dark. To this was added 900 μL of PBS+2% FBS and the mixture centrifuged at 500×g for 5 min. The supernatant was removed and the pellet resuspended in 300 μL of PBS+2% FBS and mixed well. The mixture was transferred to a cytometer tube. The samples were run in the FACS Canto II cytometer and quantified by the number of CD69+B220+ cells as a percentage of the total number of B220+ alive cells.

T2 sequence (O00329 whole entry): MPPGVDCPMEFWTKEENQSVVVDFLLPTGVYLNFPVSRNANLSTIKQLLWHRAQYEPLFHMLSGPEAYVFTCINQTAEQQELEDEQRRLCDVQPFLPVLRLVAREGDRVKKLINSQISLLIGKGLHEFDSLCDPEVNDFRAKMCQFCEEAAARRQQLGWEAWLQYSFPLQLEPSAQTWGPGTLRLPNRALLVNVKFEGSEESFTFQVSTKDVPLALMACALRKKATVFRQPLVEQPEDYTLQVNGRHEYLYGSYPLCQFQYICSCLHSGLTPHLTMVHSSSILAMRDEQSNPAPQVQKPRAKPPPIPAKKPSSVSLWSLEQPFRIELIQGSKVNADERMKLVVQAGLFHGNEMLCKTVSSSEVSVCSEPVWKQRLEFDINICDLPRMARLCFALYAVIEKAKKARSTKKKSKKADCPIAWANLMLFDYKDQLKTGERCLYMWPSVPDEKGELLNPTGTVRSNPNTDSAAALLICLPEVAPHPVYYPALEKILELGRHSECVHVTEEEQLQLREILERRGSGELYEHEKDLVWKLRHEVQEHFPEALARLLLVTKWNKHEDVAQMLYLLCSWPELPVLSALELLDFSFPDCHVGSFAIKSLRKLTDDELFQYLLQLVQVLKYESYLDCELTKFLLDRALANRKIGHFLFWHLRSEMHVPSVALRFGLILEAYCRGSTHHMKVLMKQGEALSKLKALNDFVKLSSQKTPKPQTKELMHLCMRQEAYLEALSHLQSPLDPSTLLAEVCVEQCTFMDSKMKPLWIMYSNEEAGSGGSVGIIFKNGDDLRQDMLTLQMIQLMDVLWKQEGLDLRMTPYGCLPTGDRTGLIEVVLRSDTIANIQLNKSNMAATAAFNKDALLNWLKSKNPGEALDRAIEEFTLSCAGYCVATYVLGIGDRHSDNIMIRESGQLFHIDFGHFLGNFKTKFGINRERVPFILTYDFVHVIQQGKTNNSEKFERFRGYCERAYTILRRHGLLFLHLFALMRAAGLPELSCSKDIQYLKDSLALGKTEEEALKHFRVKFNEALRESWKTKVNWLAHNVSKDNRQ
T2 sequence (P27986 whole entry partner): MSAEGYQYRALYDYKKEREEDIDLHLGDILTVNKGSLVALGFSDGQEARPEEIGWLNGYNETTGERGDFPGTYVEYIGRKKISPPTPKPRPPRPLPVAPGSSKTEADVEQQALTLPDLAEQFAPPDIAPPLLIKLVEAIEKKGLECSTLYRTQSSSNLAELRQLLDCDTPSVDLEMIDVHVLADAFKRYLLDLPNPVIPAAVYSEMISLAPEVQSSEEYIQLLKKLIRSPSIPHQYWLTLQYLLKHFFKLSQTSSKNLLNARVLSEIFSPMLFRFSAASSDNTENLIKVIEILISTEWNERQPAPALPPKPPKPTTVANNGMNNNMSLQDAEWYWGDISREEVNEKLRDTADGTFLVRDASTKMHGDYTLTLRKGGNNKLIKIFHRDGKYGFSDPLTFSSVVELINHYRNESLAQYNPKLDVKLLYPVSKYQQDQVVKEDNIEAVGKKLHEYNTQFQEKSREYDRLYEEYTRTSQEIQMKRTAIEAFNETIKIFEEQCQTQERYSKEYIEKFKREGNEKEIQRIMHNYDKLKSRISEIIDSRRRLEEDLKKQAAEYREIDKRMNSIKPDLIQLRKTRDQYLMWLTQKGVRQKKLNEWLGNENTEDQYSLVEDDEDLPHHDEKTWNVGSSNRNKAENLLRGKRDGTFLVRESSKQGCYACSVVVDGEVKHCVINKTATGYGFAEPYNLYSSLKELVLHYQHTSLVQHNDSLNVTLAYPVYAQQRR
T1 sequence (Q06187 whole entry): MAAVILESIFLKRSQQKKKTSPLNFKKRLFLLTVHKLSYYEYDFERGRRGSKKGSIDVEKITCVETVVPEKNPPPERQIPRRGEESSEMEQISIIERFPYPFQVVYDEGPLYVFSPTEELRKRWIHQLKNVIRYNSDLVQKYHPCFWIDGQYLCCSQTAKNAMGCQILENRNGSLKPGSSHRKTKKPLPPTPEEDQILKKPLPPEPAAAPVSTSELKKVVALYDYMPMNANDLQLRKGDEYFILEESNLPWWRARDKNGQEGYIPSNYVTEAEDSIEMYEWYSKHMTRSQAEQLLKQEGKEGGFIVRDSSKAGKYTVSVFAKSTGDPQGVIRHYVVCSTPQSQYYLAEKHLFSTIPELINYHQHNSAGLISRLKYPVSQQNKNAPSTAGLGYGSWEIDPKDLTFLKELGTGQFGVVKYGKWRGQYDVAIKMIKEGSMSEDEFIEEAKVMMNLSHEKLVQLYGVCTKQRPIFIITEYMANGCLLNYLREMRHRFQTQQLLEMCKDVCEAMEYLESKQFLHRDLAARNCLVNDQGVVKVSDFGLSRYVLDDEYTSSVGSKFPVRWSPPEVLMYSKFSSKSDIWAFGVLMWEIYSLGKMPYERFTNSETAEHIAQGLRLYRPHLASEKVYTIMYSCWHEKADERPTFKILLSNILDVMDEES

Structure (SMILES) | IC50 [1] | IC50 [2] | CD69 @ 100 nM (% Inh) [3] | BTK @ 0.01 μM (% Inh) ([1]; 0.01 μM compound, 10 μM ATP) | BTK @ 0.1 μM (% Inh) ([1]; 10 μM ATP) | PI3Kδ @ 0.01 μM (% Inh) ([2]; 0.01 μM compound, 10 μM ATP) | PI3Kδ @ 0.1 μM (% Inh) ([2]; 10 μM ATP) | CD69 @ 100 nM (% Inh) ([3]; 0.1 µM) | BTK @ 1 μM (% Inh) ([1]; 10 μM ATP) | PI3Kδ @ 1 μM (% Inh) ([2]; 10 μM ATP) | IC50 ([3]; Mus musculus, Splenocyte)
COc1ccc(-c2nn(C3CCc4ccccc4C3)c3ncnc(N)c23)cn1 (racemic) [compound 15, 3-(6-methoxypyridin-3-yl)-1-(1,2,3,4-tetrahydronaphthalen-2-yl)-1H-pyrazolo[3,4-d]pyrimidin-4-amine] | 565 nM | 67 nM | −0.75 ± 6.93 (n = 3) % Inh | – | – | – | – | – | – | – | –
C=CC(=O)N1CC(n2nc(-c3cc(O)cc(F)c3)c3c(N)ncnc32)Cc2cc(C)ccc21 (single isomer, unassigned) [31a, 1-(3-(4-amino-3-(3-fluoro-5-hydroxyphenyl)-1H-pyrazolo[3,4-d]pyrimidin-1-yl)-6-methyl-3,4-dihydroquinolin-1(2H)-yl)prop-2-en-1-one] | 9.5 nM | 27.7 nM | – | 67.39 % Inh | 93.84 % Inh | 33.04 % Inh | 68.13 % Inh | 15.47 ± 13.75 (n = 8) % Inh | – | – | –
Nc1ncnc2c1c(-c1ccc(Br)c(O)c1)nn2C1CCc2ccccc21 (single isomer, unassigned) [36a, 5-[4-amino-1-(2,3-dihydro-1H-inden-1-yl)-1H-pyrazolo[3,4-d]pyrimidin-3-yl]-2-bromophenol] | 190 nM | 1 nM | 1.63 ± 7.31 (n = 3) % Inh | – | 26.99 % Inh | – | 34.17 % Inh | – | 72.83 % Inh | 76.31 % Inh | –
COc1ccc(-c2nn(C3CCc4ccccc4C3)c3ncnc(N)c23)cc1F (single isomer, unassigned) [Compound No. 14b, 3-(3-fluoro-4-methoxyphenyl)-1-(1,2,3,4-tetrahydronaphthalen-2-yl)-1H-pyrazolo[3,4-d]pyrimidin-4-amine] | 1590 nM | 25.4 nM | 24.20 ± 12.24 (n = 6) % Inh | – | – | – | – | – | – | – | –
Nc1ncnc2c1c(-c1ccc3[nH]cnc3c1)nn2C1CCc2ccccc2C1 (single isomer, unassigned) [Compound No. 19a, 3-(1H-benzo[d]imidazol-5-yl)-1-(1,2,3,4-tetrahydronaphthalen-2-yl)-1H-pyrazolo[3,4-d]pyrimidin-4-amine] | 1210 nM | 14.8 nM | – | – | – | – | – | 24.62 ± 10.79 (n = 6) % Inh | – | – | –
Nc1ncnc2c1c(-c1ccc3[nH]cnc3c1)nn2C1CCc2ccccc2C1 (single isomer, unassigned) [Compound No. 19b, 3-(1H-benzo[d]imidazol-5-yl)-1-(1,2,3,4-tetrahydronaphthalen-2-yl)-1H-pyrazolo[3,4-d]pyrimidin-4-amine] | 1270 nM | 6.4 nM | – | – | – | – | – | 36.67 ± 6.35 (n = 6) % Inh | – | – | –
Nc1ncnc2c1c(-c1cc(O)cc(Cl)c1)nn2C1Cc2ccccc2C1 [Compound No. 67, 3-[4-amino-1-(2,3-dihydro-1H-inden-2-yl)-1H-pyrazolo[3,4-d]pyrimidin-3-yl]-5-chlorophenol] | 142 nM | 4.1 nM | 65.11 ± 18.09 (n = 6) % Inh | – | 43.63 % Inh | – | 84.5 % Inh | – | 87.64 % Inh | 90.92 % Inh | 109 ± 57 nM
